Values joined by “and” are separate entries in the source; they are usually repeats but may differ in a detail not shown here. Equal entries are not always repeated. Structures can show the parent of a compound that is named as a salt. Where two headings read alike, the source gives them in different places.
Legend:
[1] = system: M5076 murine reticulosarcoma cells; experiment: In vivo antitumor activity in mice implanted with M5076 tumor cells; set-up: species or system Mice C57BL/6; settings: days 1, 4, 7 and 11; for A.U.C. % inhib. (inhibition of tumor growth): one week after last treatment; for TGD (tumor growth delay): time to reach one gram
Method: (§1) The combinations were assayed in vitro on M5076 murine reticulosarcoma cells and in vivo on the same tumor cells implanted intramuscularly.
The antitumor activity was calculated in terms of:
% AUC: inhibition of tumor growth
T/C %: percentage of median increase in survival time
The A.U.C. (area under the curve) of the tumor growth was calculated by using the trapezoidal method, and is referred to the measurement of tumor growth performed one week after the last treatment. The percentage of inhibition (% A.U.C.) was calculated using the following formula: [formula]
The percentage of increase in survival time (T/C% ) was calculated using the following formula: [formula]
Mice were monitored according to guidelines and sacrificed when tumor weight exceeded 10% body weight. Tumor growth delay (TGD) is the time, in days, to reach one gram of tumor weight in treated animals as compared to control animals.
Evaluation of statistical significance was performed as follows: Student's Test for cytotoxic activity, Two-Way Anova for increase in survival time (T/C %) with combined treatment in comparison to the increase exerted separately by the two drugs, Tukey Test for tumor weight reduction (AUC % inhibition) with combined treatment in comparison to the reduction exerted separately by the two drugs.
The criterion for statistical significance was the 0.01 level ( )

[2] = system: M5076 murine reticulosarcoma cells; experiment: In vitro antiproliferative activity (% cell growth vs untreated control); format: cell-based; settings: for antiproliferative activity in the presence of PNU 145156E: in words, PNU 145156E 50000 ng/ml vs 0 ng/ml
Method: as §1

[3] = days 1, 4, 7 and 11
Method: Mice C57BL/6 were implanted with M5076 murine reticulosarcoma cells. PNU 145156E was administered ip 2 h prior to cytotoxic drugs administered iv starting treatment 24 h after tumor implant. Treatments were performed at days 1, 4, 7 and 11.
The toxicological evaluation was performed in terms of body weight loss and spleen and liver reduction.

[4] = PNU 145156E alone 100 mg/kg ip, single-agent arm of each of Tables 2-6
[5] = 9AC 2.5 mg/kg iv, combination: + PNU 145156E 100 mg/kg ip 2 h prior
[6] = 9AC 3 mg/kg iv, combination: + PNU 145156E 100 mg/kg ip 2 h prior
[7] = 9AC 3.5 mg/kg iv, combination: + PNU 145156E 100 mg/kg ip 2 h prior
[8] = cytotoxic 40 ng/ml + PNU 145156E 50000 ng/ml, 72 h, 37° C.
[9] = CIS 6 mg/kg iv, combination: + PNU 145156E 100 mg/kg ip 2 h prior
[10] = TX 33 mg/kg iv, combination: + PNU 145156E 100 mg/kg ip 2 h prior
[11] = TX 40 mg/kg iv, combination: + PNU 145156E 100 mg/kg ip 2 h prior
[12] = CPT-11 60 mg/kg iv, combination: + PNU 145156E 100 mg/kg ip 2 h prior

Cn1cc(NC(=O)Nc2cc(C(=O)Nc3cc(C(=O)Nc4ccc5cc(S(=O)(=O)O)cc(S(=O)(=O)O)c5c4)n(C)c3)n(C)c2)cc1C(=O)Nc1cc(C(=O)Nc2ccc3cc(S(=O)(=O)O)cc(S(=O)(=O)O)c3c2)n(C)c1 [PNU 145156E, 7'-(carbonyl-bis(imino-N-methyl-4,2-pyrrolecarbonyl-imino(N-methyl-4,2-pyrrole)carbonylimino))bis(1,3-naphtalen-disulfonic acid)tetrasodium salt]
T/C % (median increase in survival time) [1, 4]: 121% and 141% and 148%
Tumor weight [1, 4]: 1.45 ± 0.7 gr and 2.63 ± 0.8 gr and 1.4 ± 0.7 gr and 1.7 ± 0.65 gr
A.U.C. % inhib. (inhibition of tumor growth) [1, 4]: 88% and 85% and 90% and 75%
TGD (tumor growth delay) [1, 4]: 9 days and 10 days and 16 days
activity at 50 µg/mL ([2]; Mus musculus, M5076, 72 h, PNU 145156E 50000 ng/ml alone (cytotoxic 0 ng/ml), 72 h, 37° C., read-out: % cell growth ± S.E.): 85%
% cell growth ± S.E. ([2]; PNU 145156E 50000 ng/ml alone (cytotoxic 0 ng/ml), 72 h, 37° C., 4320 min): 88 ± 3% and 92 ± 5% and 92 ± 14% and 89 ± 19%
Toxic/total mice [3, 4]: 0/10 and 0/9 and 0/8

CC[C@@]1(O)C(=O)OCc2c1cc1n(c2=O)Cc2cc3c(N)cccc3nc2-1 [9-AC, 9-aminocamptothecin]
T/C % (median increase in survival time) [1, 5]: 121%
Tumor weight [1, 5]: 2.4 ± 0.9 gr
A.U.C. % inhib. (inhibition of tumor growth) [1, 5]: 45%
TGD (tumor growth delay) [1, 5]: 5 days
T/C % (median increase in survival time) [1, 6]: 125%
Tumor weight [1, 6]: 2.13 ± 0.8 gr
A.U.C. % inhib. (inhibition of tumor growth) [1, 6]: 48%
TGD (tumor growth delay) [1, 6]: 6 days
T/C % (median increase in survival time) [1, 7]: 128%
Tumor weight [1, 7]: 1.58 ± 0.6 gr
A.U.C. % inhib. (inhibition of tumor growth) [1, 7]: 68%
TGD (tumor growth delay) [1, 7]: 8 days
activity at 0.0025 µg/mL ([2]; Mus musculus, M5076, 72 h, cytotoxic 2.5 ng/ml, PNU 145156E 0 ng/ml, 72 h, 37° C., read-out: % cell growth ± S.E.): 88 ± 10%
activity at 0.01 µg/mL ([2]; Mus musculus, M5076, 72 h, cytotoxic 10 ng/ml, PNU 145156E 0 ng/ml, 72 h, 37° C., read-out: % cell growth ± S.E.): 28 ± 2%
activity at 0.04 µg/mL ([2]; Mus musculus, M5076, 72 h, cytotoxic 40 ng/ml, PNU 145156E 0 ng/ml, 72 h, 37° C., read-out: % cell growth ± S.E.): 7 ± 2%
% cell growth ± S.E. ([2]; cytotoxic 2.5 ng/ml + PNU 145156E 50000 ng/ml, 72 h, 37° C.): 76 ± 6%
% cell growth ± S.E. ([2]; cytotoxic 10 ng/ml + PNU 145156E 50000 ng/ml, 72 h, 37° C.): 29 ± 9%
% cell growth ± S.E. [2, 8]: 8 ± 3%
antiproliferative activity in the presence of PNU 145156E [2]: unchanged in the presence of PNU 145156E
Toxic/total mice [3, 5]: 0/10
Toxic/total mice [3, 6]: 0/10
Toxic/total mice [3, 7]: 1/10

N.N.[Cl][Pt][Cl] [CIS, cisplatin]
T/C % (median increase in survival time) [1, 9]: 130%
Tumor weight [1, 9]: 1.1 ± 0.1 gr
A.U.C. % inhib. (inhibition of tumor growth) [1, 9]: 75%
TGD (tumor growth delay) [1, 9]: 11 days
% cell growth ± S.E. ([2]; cytotoxic 8 ng/ml + PNU 145156E 50000 ng/ml, 72 h, 37° C.): 83 ± 7%
% cell growth ± S.E. ([2]; cytotoxic 8 ng/ml, PNU 145156E 0 ng/ml, 72 h, 37° C.): 91 ± 3%
% cell growth ± S.E. [2, 8]: 46 ± 3%
% cell growth ± S.E. ([2]; cytotoxic 40 ng/ml, PNU 145156E 0 ng/ml, 72 h, 37° C.): 52 ± 7%
% cell growth ± S.E. ([2]; cytotoxic 200 ng/ml + PNU 145156E 50000 ng/ml, 72 h, 37° C.): 4 ± 1%
% cell growth ± S.E. ([2]; cytotoxic 200 ng/ml, PNU 145156E 0 ng/ml, 72 h, 37° C.): 9 ± 5%
antiproliferative activity in the presence of PNU 145156E [2]: unchanged in the presence of PNU 145156E

CC(=O)O[C@H]1C(=O)[C@@]2(C)[C@H]([C@H](OC(=O)c3ccccc3)[C@]3(O)C[C@H](OC(=O)[C@H](O)[C@@H](NC(=O)c4ccccc4)c4ccccc4)C(C)=C1C3(C)C)[C@]1(OC(C)=O)CO[C@@H]1C[C@@H]2O [PACLITAXEL, paclitaxel]
T/C % (median increase in survival time) [1, 10]: 108%
Tumor weight [1, 10]: 2.34 ± 0.9 gr
A.U.C. % inhib. (inhibition of tumor growth) [1, 10]: 77%
TGD (tumor growth delay) [1, 10]: 8 days
T/C % (median increase in survival time) [1, 11]: 118%
Tumor weight [1, 11]: 1.3 ± 0.7 gr
A.U.C. % inhib. (inhibition of tumor growth) [1, 11]: 93%
TGD (tumor growth delay) [1, 11]: 9 days
activity at 0.00625 µg/mL ([2]; Mus musculus, M5076, cytotoxic 6.25 ng/ml, PNU 145156E 0 ng/ml, 72 h, 37° C., read-out: % cell growth ± S.E.): 89 ± 1%
activity at 0.025 µg/mL ([2]; Mus musculus, M5076, cytotoxic 25 ng/ml, PNU 145156E 0 ng/ml, 72 h, 37° C., read-out: % cell growth ± S.E.): 50 ± 7%
activity at 0.1 µg/mL ([2]; Mus musculus, M5076, cytotoxic 100 ng/ml, PNU 145156E 0 ng/ml, 72 h, 37° C., read-out: % cell growth ± S.E.): 1 ± 1%
% cell growth ± S.E. ([2]; cytotoxic 6.25 ng/ml + PNU 145156E 50000 ng/ml, 72 h, 37° C.): 87 ± 14%
% cell growth ± S.E. ([2]; cytotoxic 25 ng/ml + PNU 145156E 50000 ng/ml, 72 h, 37° C.): 43 ± 1%
% cell growth ± S.E. ([2]; cytotoxic 100 ng/ml + PNU 145156E 50000 ng/ml, 72 h, 37° C.): 2 ± 0%
antiproliferative activity in the presence of PNU 145156E [2]: unchanged in the presence of PNU 145156E
Toxic/total mice [3, 10]: 0/10
Toxic/total mice [3, 11]: 0/10

CCc1c2c(nc3ccc(OC(=O)N4CCC(N5CCCCC5)CC4)cc13)-c1cc3c(c(=O)n1C2)COC(=O)[C@]3(O)CC [CPT-11, irinotecan]
T/C % (median increase in survival time) [1, 12]: 215%
Tumor weight [1, 12]: 0.05 ± 0.2 gr
A.U.C. % inhib. (inhibition of tumor growth) [1, 12]: 100%
TGD (tumor growth delay) [1, 12]: 34 days
Toxic/total mice [3, 12]: 0/8

CCc1c2c(nc3ccc(O)cc13)-c1cc3c(c(=O)n1C2)COC(=O)[C@]3(O)CC [SN-38]
activity at 0.0065 µg/mL ([2]; Mus musculus, M5076, 72 h, cytotoxic 6.5 ng/ml, PNU 145156E 0 ng/ml, 72 h, 37° C., read-out: % cell growth ± S.E.): 75 ± 5%
activity at 0.0125 µg/mL ([2]; Mus musculus, M5076, 72 h, cytotoxic 12.5 ng/ml, PNU 145156E 0 ng/ml, 72 h, 37° C., read-out: % cell growth ± S.E.): 19 ± 2%
activity at 0.035 µg/mL ([2]; Mus musculus, M5076, 72 h, cytotoxic 35 ng/ml, PNU 145156E 0 ng/ml, 72 h, 37° C., read-out: % cell growth ± S.E.): 5 ± 1%
% cell growth ± S.E. ([2]; cytotoxic 6.5 ng/ml + PNU 145156E 50000 ng/ml, 72 h, 37° C.): 74 ± 7%
% cell growth ± S.E. ([2]; cytotoxic 12.5 ng/ml + PNU 145156E 50000 ng/ml, 72 h, 37° C.): 25 ± 7%
antiproliferative activity in the presence of PNU 145156E [2]: unchanged in the presence of PNU 145156E
